Consider 22 molecules from PubChem BioAssay AID274 (DTP/NCI, 2004).

This test relates to BDF1 mice, Lewis lung carcinoma iv, survival T/C. Kind of test: NCI In Vivo Anticancer Drug Screen. Data for tumor model Lewis Lung Carcinoma (intravenous) in B6D2F1 (BDF1) mice. Conditions: endpoint: median survival time, schedule: Q01DX009 (ip), higher = longer survival. Here is the method: The antitumor activity of compounds was measured in mice bearing transplantable tumors. Survival or tumor size were measured and the results are expressed as the measurement made in the treated group (T) divided by the measurement made in the vehicle treated control group (C). The tumor model used in this assay is Lewis Lung Carcinoma (intravenous) in B6D2F1 (BDF1) mice

[1] abbreviates: dose: 12.5 mg/kg/injection, vehicle: saline.
Setting [2] is: dose: 25.0 mg/kg/injection, vehicle: saline.
Setting [3] is: dose: 50.0 mg/kg/injection, vehicle: saline.
Setting [4] is: dose: 1.0 mg/kg/injection, vehicle: saline.
Setting [5] is: dose: 2.0 mg/kg/injection, vehicle: saline.
[6] abbreviates: dose: 25.0 mg/kg/injection, vehicle: Klucel (hydroxypropylcellulose) (HPC).
Where [7] appears, read: dose: 50.0 mg/kg/injection, vehicle: Klucel (hydroxypropylcellulose) (HPC).
Where [8] appears, read: dose: 100.0 mg/kg/injection, vehicle: Klucel (hydroxypropylcellulose) (HPC).
The mark [9] stands for this setting: dose: 12.5 mg/kg/injection, vehicle: Klucel (hydroxypropylcellulose) (HPC).
[10] abbreviates: dose: 200.0 mg/kg/injection, vehicle: Klucel (hydroxypropylcellulose) (HPC).
Setting [11] is: dose: 400.0 mg/kg/injection, vehicle: Klucel (hydroxypropylcellulose) (HPC).
Setting [12] is: dose: 12.5 mg/kg/injection, vehicle: saline with Tween-80.
[13] abbreviates: dose: 25.0 mg/kg/injection, vehicle: saline with Tween-80.
[14] abbreviates: dose: 50.0 mg/kg/injection, vehicle: saline with Tween-80.
Where [15] appears, read: dose: 100.0 mg/kg/injection, vehicle: saline with Tween-80.
Where [16] appears, read: dose: 200.0 mg/kg/injection, vehicle: saline with Tween-80.
Where [17] appears, read: dose: 400.0 mg/kg/injection, vehicle: saline with Tween-80.
[18] abbreviates: dose: 6.25 mg/kg/injection, vehicle: saline with Tween-80.

SMILES strings stand for the structures. Toxic doses and inconclusive results are not listed.

For `c1ccc(CCN2CCC(CCc3c[nH]c4ccccc34)CC2)cc1`, the T/C is, setting by setting: under setting [1], 100 % of control; under setting [2], 104 % of control; under setting [3], 116 % of control.
Regarding `CCCNc1ncnc2c1cnn2C`, the T/C under setting [1] is 100 % of control, the T/C under setting [2] was 105 % of control and the T/C under setting [3] is 109 % of control.
On to `Nc1nc(=S)c2[nH]cnc2[nH]1`, for which the T/C runs as follows: (dose: 0.25 mg/kg/injection, vehicle: saline) 105 % of control; (dose: 0.5 mg/kg/injection, vehicle: saline) 114 % of control; under setting [4], 107 % of control; under setting [5], 92 % of control.
In the case of `c1nc(N2CC2)c2cnn(C3CCCCO3)c2n1` (stereo not given), the T/C under setting [6] was 107 % of control, the T/C under setting [7] is 100 % of control and the T/C under setting [8] was 101 % of control.
Consider `CCOC(=O)C1C2OC(=O)C(C(=O)C2CN(CCCl)CCCl)C1C1CC=C(CC2=CCC(C3C4C(=O)OC(C(CN(CCCl)CCCl)C4=O)C3C(=O)OCC)CC2)CC1` (stereo not given), for which the T/C is, setting by setting: under setting [9], 104 % of control; under setting [6], 104 % of control; under setting [7], 102 % of control; under setting [8], 111 % of control.
For `OC(CBr)C(O)C(O)C(O)CBr` (stereo not given), the T/C runs as follows: under setting [7], 117 % of control; under setting [8], 109 % of control; under setting [10], 103 % of control; under setting [11], 111 % of control; (dose: 800.0 mg/kg/injection, vehicle: Klucel (hydroxypropylcellulose) (HPC)) 97 % of control.
For the molecule `O=C(O)CC(=O)O.[NH-]C1CCCCC1[NH-].[Pt+2]` (stereo not given), the T/C reads like this: (dose: 12.5 mg/kg/injection, vehicle: dextrose) 117 % of control; (dose: 25.0 mg/kg/injection, vehicle: dextrose) 88 % of control.
For the molecule `O=S(=O)(N=N/C=C1\C=CC=CN1O)c1cccs1`, the T/C is, setting by setting: under setting [12], 105 % of control; under setting [13], 115 % of control; under setting [14], 100 % of control; under setting [15], 92 % of control.
With `C=CCCC(=O)CCCC(=O)O[C@@H]1[C@@H]2[C@H](CC1(C)C)[C@H](O)[C@@]13O[C@@H]1[C@H](O)[C@@]1(CO1)[C@@]23C`, the T/C is, setting by setting: (dose: 6.2 micrograms/kg/injection, vehicle: Klucel (hydroxypropylcellulose) (HPC)) 116 % of control; (dose: 12.5 micrograms/kg/injection, vehicle: Klucel (hydroxypropylcellulose) (HPC)) 120 % of control; (dose: 25.0 micrograms/kg/injection, vehicle: Klucel (hydroxypropylcellulose) (HPC)) 107 % of control; (dose: 50.0 micrograms/kg/injection, vehicle: Klucel (hydroxypropylcellulose) (HPC)) 112 % of control.
With `O=C1N(Cl)C(=O)C(c2ccc(Cl)cc2)(c2ccc(Cl)cc2)N1Cl`, the T/C by setting is: under setting [12], 101 % of control; under setting [13], 96 % of control; under setting [14], 103 % of control; under setting [15], 101 % of control; under setting [16], 103 % of control; under setting [17], 113 % of control.
Consider `Cc1c(N)nc([C@H](CC(N)=O)NC[C@H](N)C(N)=O)nc1C(=O)N[C@H](C(=O)N[C@H](C)[C@@H](O)CC(=O)N[C@H](C(=O)NC(O[C@@H]1O[C@@H](C)[C@@H](N)[C@@H](O)[C@H]1O)C(O)c1nc(-c2nc(C(=O)NCCCCN)cs2)cs1)[C@@H](C)O)[C@@H](O[C@@H]1O[C@@H](CO)[C@@H](O)[C@H](O)[C@@H]1O[C@H]1O[C@H](CO)[C@@H](O)[C@H](OC(N)=O)[C@@H]1O)c1c[nH]cn1` (stereo not given in full), for which the T/C under setting [4] is 109 % of control and the T/C under setting [5] is 114 % of control.
With `CC1(C)OC1CS(=O)c1ccccc1` (stereo not given), the T/C under setting [12] is 105 % of control; the T/C under setting [13] was 99 % of control; the T/C under setting [14] is 91 % of control; the T/C under setting [15] is 96 % of control; the T/C under setting [16] is 95 % of control; the T/C under setting [17] was 114 % of control.
As for `Cc1cc(/C=C/c2cc[n+](C)c3ccccc23)c(O)c2ncccc12`, the T/C runs as follows: under setting [18], 95 % of control; under setting [12], 109 % of control.
Turning to `ClCC[Se](Cl)(Cl)c1ccccc1`, the T/C by setting is: (dose: 0.78 mg/kg/injection, vehicle: saline) 98 % of control; (dose: 1.56 mg/kg/injection, vehicle: saline) 109 % of control; (dose: 3.0 mg/kg/injection, vehicle: saline) 114 % of control.
In the case of `CCOC(=O)C1=C(C#N)C2(CCC(OCc3ccccc3)CC2)C(=O)O1` (stereo not given), the T/C reads like this: under setting [1], 94 % of control; under setting [2], 95 % of control; under setting [3], 98 % of control; (dose: 100.0 mg/kg/injection, vehicle: saline) 106 % of control; (dose: 200.0 mg/kg/injection, vehicle: saline) 114 % of control; (dose: 400.0 mg/kg/injection, vehicle: saline) 89 % of control.
For `NC(=O)c1ncn(C2OC(CO)C(O)C2O)n1` (stereo not given), the T/C runs as follows: (dose: 10.0 mg/kg/injection, vehicle: saline) 110 % of control; (dose: 20.0 mg/kg/injection, vehicle: saline) 110 % of control; (dose: 40.0 mg/kg/injection, vehicle: saline) 101 % of control; (dose: 80.0 mg/kg/injection, vehicle: saline) 97 % of control; (dose: 160.0 mg/kg/injection, vehicle: saline) 106 % of control.
On to `COc1cc2c[n+](C)c3c4cc5c(cc4ccc3c2cc1OC)OCO5` (tested in a mixture with another compound), for which the T/C is 103 % of control (dose: 3.13 mg/kg/injection, vehicle: Klucel (hydroxypropylcellulose) (HPC)); 184 % of control (dose: 6.25 mg/kg/injection, vehicle: Klucel (hydroxypropylcellulose) (HPC)); 120 % of control under setting [9]; 120 % of control under setting [6].
Consider `Cc1cc2cc3cc(C)c(N)cc3nc2cc1N`, for which the T/C (dose: 3.12 mg/kg/injection, vehicle: saline with Tween-80) is 102 % of control; the T/C under setting [18] was 104 % of control; the T/C under setting [12] is 100 % of control; the T/C under setting [13] was 105 % of control.
As to `Cc1ccc(NCC2(/N=C/c3ccccc3)OC(CO)C(O)C2O)cc1` (stereo not given), the T/C is 103 % of control under setting [9]; 95 % of control under setting [6]; 100 % of control under setting [7]; 99 % of control under setting [8]; 96 % of control under setting [10]; 86 % of control under setting [11].
As to `OCCOCC(F)(F)F`, the T/C runs as follows: under setting [18], 98 % of control; under setting [12], 86 % of control; under setting [13], 106 % of control; under setting [2], 89 % of control; under setting [14], 90 % of control; under setting [15], 102 % of control. For the same molecule, under setting [16], the T/C is 103 % of control.
As to `C1CN1c1nc(N2CC2)nc(N2CC2)n1`, the T/C by setting is: (dose: 0.06 mg/kg/injection, vehicle: suspension in saline) 105 % of control; (dose: 0.12 mg/kg/injection, vehicle: suspension in saline) 101 % of control; (dose: 0.25 mg/kg/injection, vehicle: suspension in saline) 112 % of control.
Turning to `O=C(NO)c1cc(O)c(O)c(O)c1`, the T/C by setting is: (dose: 25.0 mg/kg/injection, vehicle: water) 100 % of control; (dose: 50.0 mg/kg/injection, vehicle: water) 100 % of control; (dose: 100.0 mg/kg/injection, vehicle: water) 97 % of control; (dose: 200.0 mg/kg/injection, vehicle: water) 97 % of control.
